Article PMC4659708 (Nature, 2015)

Assays:
[1] = target: T1, α1 glycine receptor (GlyREM) (Danio rerio, UniProt O93430, DEL334-400/INS333AGT); experiment: TEVC in Xenopus oocytes, block of glycine current at […]; type: cell-based; details: read-out: % inhibition at 1 mM
T1 sequence (O93430 with tags, fused parts or gaps INS333AGT/DEL334-400): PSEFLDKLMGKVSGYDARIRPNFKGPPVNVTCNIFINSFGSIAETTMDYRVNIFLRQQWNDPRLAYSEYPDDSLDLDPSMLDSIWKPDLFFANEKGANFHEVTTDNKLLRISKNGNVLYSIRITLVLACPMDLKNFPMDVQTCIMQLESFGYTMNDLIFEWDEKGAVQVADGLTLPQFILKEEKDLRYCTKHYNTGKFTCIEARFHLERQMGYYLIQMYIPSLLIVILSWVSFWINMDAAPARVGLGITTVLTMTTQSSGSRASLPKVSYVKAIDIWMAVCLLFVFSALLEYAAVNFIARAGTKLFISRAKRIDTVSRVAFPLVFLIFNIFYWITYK

[2] = target: T1, α1 glycine receptor (GlyREM); experiment: TEVC in Xenopus oocytes, agonist activation; type: cell-based

SMILES	inhibition at 1000 µM [1] [%]	EC50 [2] [µM]
C=C(C)[C@@H]1[C@H]2OC(=O)[C@@H]1[C@]1(O)C[C@H]3O[C@]34C(=O)O[C@H]2[C@]14C [ptx, picrotoxinin]	~80	
NCC(=O)O [gly, glycine]		260
